# Measurements reported in patent US20240216513A1, “FATTY ACID-BIFUNCTIONAL DEGRADER CONJUGATES AND THEIR METHODS OF USE” (Novartis AG, priority 2021, published 2024).
# Read-outs that look alike come from different tables or passages of the source.
# Tests used:
# [1] = In vivo pharmacokinetic study in rats (i.v. or s.c.), FAC and payload in blood; set-up: species or system rat; details: for AUC: male, Sprague-Dawley, rat, whole blood, 1 umol/kg
# Method: Pharmacokinetic studies were conducted in male C57/B16 mice; male Sprague-Dawley rats; male Beagle dogs and male Cynomolgus monkeys. 3 animals per group were used for each study performed. All studies were performed in accordance with local animal welfare regulations.
# […] Serial 30 µL blood samples were collected via venipuncture of the tail vein in mouse, and via the cannulated jugular vein in rats at defined timepoints to 216 hours (into EDTA coated tubes).
# Each blood sample was precipitated with acetonitrile containing internal standard; samples were mixed and centrifuged (20 minutes 4000 RPM at 4° C.). Supernatant was transferred to a microwell plate and evaporated under nitrogen at 60° C. Residue was resuspended in acetonitrile/water (7:3 v/v); plate sealed and transferred to an ultrasonic bath for 3 minutes, prior to analysis. Quantification was performed by LC-MS/MS (SciexAP16500 Q-trap, Shimadzu Nexera X2) using a Phenomenex Polar RP analytical column (2.5 μm particle size; 50×2 mm). The mobile phase consisted of solvent A (0.1% formic acid in water) and solvent B (0.1% formic acid in acetonitrile). The fatty acid conjugate and API were detected using multiple reaction monitoring.
# Data analysis and calculation of non-compartmental pharmacokinetic parameters was
# performed using an in-house analysis. Following intravenous administration whole blood clearance was calculated by the dose administered divided by AUC0-inf. Volume of distribution at steady state was calculated as MRT*CL, where MRT is the mean residence time, calculated by AUMC0-inf/AUC0-inf. The half-life (t1/2) of the terminal elimination phase was calculated by 0.693/λ. For both intravenous and subcutaneous administration, the systemic exposures were determined by calculating the area under the blood concentration time curve (AUC) from time zero to the last observed quantifiable concentration (AUClast) by using the linear trapezoidal method and normalised to dose. Extrapolated AUC (AUC0-inf) is calculated by addition of AUClast and AUCtlast-inf; where AUCtlast-inf is calculated based on Clast/λ. The slope of the terminal elimination phase was estimated by linear regression of the terminal data points (minimum 3 points) from a natural log concentration versus time plot of the data. Bioavailability was calculated as the dose normalized ratio of […] AUCinf to intravenous AUCinf (100*[SC AUCinf/SC dose]/[IV AUCinf/IV dose]). Following subcutaneous administration Cmax is calculated as the average maximum observed peak concentration and Tmax is the time associated with the determined Cmax.
# For PK experiments, non-tumor bearing mice or rats were treated once (10 mL/kg) with a compound either i.v. or s.c. Serial blood samplings from the tail vein (5-20 μl) were collected during the course of the experiment. For PK/PD experiments in tumor-bearing mice, compound was administered once (10 mL/kg) either i.v. or s.c. Animals were randomized into groups of n=3 and tissue samples were collected at several time points. At the times indicated, animals were anaesthetized by exposure to 2-3% v/v isoflurane in medical oxygen. They were sacrificed without recovering from anesthetic after blood sampling into commercially prepared EDTA coated tubes (Milian, cat #TOM-14C) in order to extract plasma. The tissues were excised, weighted and rapidly frozen in liquid nitrogen. Later, tumors were cryogenic dry pulverized with the CryoPrep™ system (model CP-02, Covaris). For efficacy experiments in ectopic tumor-bearing mice, animals were randomized into groups of n=6 for a mean tumor size of 100 mm^3 and compound was administered either i.v. q3w or s.c. q2w. When implanted in brain, animals were randomized into groups of n=4 for a mean bioluminescence of 1.0-2.0E+06 [p/s]/[ρW/cm^2] and compound was administered i.v. qw. Tumor response were reported with the measures of tumor volumes or bioluminescence from the treatment start. […]
# [2] = BTK FAC plasma stability assay, PBS buffer arm; format: physicochemical; details: incubation to 24 h
# Method in brief: (§1)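 Compound from a 500 µM acetonitrile:water working solution was spiked into K3-EDTA plasma or Dulbecco's PBS and incubated with shaking at 38 °C. Samples taken at 0, 2, 6 and 24 h were precipitated with cold acetonitrile containing glyburide internal standard. Semi-quantitative LC-MS/MS used analyte:internal standard peak area ratios.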
# [3] = BTK FAC plasma stability assay, mouse plasma; format: in vitro ADME; details: incubation to 24 h
# Method in brief: as §1
# [4] = BTK FAC plasma stability assay, rat plasma; format: in vitro ADME; details: incubation to 24 h
# Method in brief: as §1
# BTK C481S = biological target: T1, BTK C481S (Homo sapiens, UniProt Q06187, C481S); experiment: PD screen in TMD8 BTK C481S mutant tumor-bearing mice, BTK levels and compound concentrations in blood and tumor; format: in vivo, mouse; details: 20 mgL/kg (unconjugated V)
# T1 construct: endogenous in cells; host or cells: TMD8 BTK C481S mutant tumour xenografts in mice
# T1 sequence (Q06187 whole entry C481S): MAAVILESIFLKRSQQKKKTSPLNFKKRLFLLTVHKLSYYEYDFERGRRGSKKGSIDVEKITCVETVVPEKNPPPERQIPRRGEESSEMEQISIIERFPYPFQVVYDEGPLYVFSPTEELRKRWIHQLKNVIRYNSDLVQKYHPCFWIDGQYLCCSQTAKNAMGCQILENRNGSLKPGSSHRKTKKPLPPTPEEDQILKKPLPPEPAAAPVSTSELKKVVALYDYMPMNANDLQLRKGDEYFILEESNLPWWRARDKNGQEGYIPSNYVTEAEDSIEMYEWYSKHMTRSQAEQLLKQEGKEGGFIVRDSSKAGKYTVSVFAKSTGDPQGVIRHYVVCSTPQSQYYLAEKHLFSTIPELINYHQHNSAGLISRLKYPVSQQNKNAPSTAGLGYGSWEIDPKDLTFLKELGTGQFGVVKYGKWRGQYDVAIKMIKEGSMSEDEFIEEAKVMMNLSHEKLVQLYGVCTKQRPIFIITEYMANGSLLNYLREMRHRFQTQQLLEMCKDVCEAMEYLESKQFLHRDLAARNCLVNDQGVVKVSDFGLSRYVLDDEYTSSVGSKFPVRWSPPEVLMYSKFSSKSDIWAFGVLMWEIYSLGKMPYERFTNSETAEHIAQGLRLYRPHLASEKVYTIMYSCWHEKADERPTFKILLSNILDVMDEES
# Method in brief: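 Single compound injection in mice bearing TMD8 BTK C481S tumors, groups of 2, with blood and tumor sampled at day 0, 4, 7 and sometimes 10. Compound levels measured by UPLC/MS-MS and BTK levels by Meso Scale Discovery.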
structure (smiles),measurement,setting,value
"COc1ccc(C(=O)N2CCC3(CCN(CCc4ccc(-c5cc6c(-c7cc(F)cc(NC(=O)c8ccc(C(C)(C)O)cc8F)c7C)ncnc6[nH]5)cc4)CC3)CC2)cc1N1CCC(=O)NC1=O [Compound V, N-(3-(6-(4-(2-(9-(3-(2,4-Dioxotetrahydropyrimidin-1(2H)-yl)-4-methoxybenzoyl)-3,9-diazaspiro[5.5]undecan-3-yl)ethyl)phenyl)-7H-pyrrolo[2,3-d]pyrimidin-4-yl)-5-fluoro-2-methylphenyl)-2-fluoro-4-(2-hydroxypropan-2-yl)benzamide]","Payload C0-uM (unconjugated degrader dosed, second payload cell)","[1]; API i.v., species taken as rat, listed as note (1 umol/kg)",1.1 µM
same,AUC,"[1]; iv, API i.v., species taken as rat, listed as note (1 umol/kg), read-out: Payload AUC-uM.h (unconjugated degrader dosed, second payload cell)",0.57 µM·h
same,AUC,"[1]; sc, subcutaneous dosing, unconjugated Compound V at 1 umol/kg, read-out: Payload AUC",0.57 µM·h
same,Plasma stability (h) PBS,[2],>48 h
same,Plasma stability (h) mouse,[3],27.1 h
same,Plasma stability (h) rat,[4],39.3 h
same,Duration of BTK degradation in mouse ≥90%,BTK C481S; i.v.,<4 days
same,Duration of BTK degradation in mouse ≥90% (days),BTK C481S; s.c.,Not tolerated
